Assay results taken from patent US11203601B2, “Tricyclic compounds as glycogen synthase kinase 3 (GSK3) inhibitors and uses thereof” (The Broad Institute, Inc., priority 2017, dated 2021).

Key:
Experiment in all cases: Carna kinome panel
Format in all cases: biochemical
NEK9 = NEK9 (Homo sapiens (Human), UniProt Q8TD19); conditions: read-out: % Inhibition at 10 μM of the test compound
PKCη = PKCη (Homo sapiens (Human), UniProt P24723); conditions: read-out: % Inhibition at 10 μM of the test compound
BMX = BMX (Homo sapiens (Human), UniProt P51813); conditions: read-out: % Inhibition at 10 μM of the test compound
SLK = SLK (Homo sapiens (Human), UniProt Q9H2G2); conditions: read-out: % Inhibition at 10 μM of the test compound
EGFR(d746-750) = EGFR(d746-750) (Homo sapiens (Human), UniProt P00533, DEL746-750); conditions: read-out: % Inhibition at 10 μM of the test compound
ITK = ITK (Homo sapiens (Human), UniProt Q08881); conditions: read-out: % Inhibition at 10 μM of the test compound
Erk5 = Erk5 (Homo sapiens (Human), UniProt Q13164); conditions: read-out: % Inhibition at 10 μM of the test compound
PRKX = PRKX (Homo sapiens (Human), UniProt P51817); conditions: read-out: % Inhibition at 10 μM of the test compound
MAP3K5_Cascade = MAP3K5_Cascade (Homo sapiens (Human), UniProt Q99683); conditions: read-out: % Inhibition at 10 μM of the test compound
EPHA3 = EPHA3 (Homo sapiens (Human), UniProt P29320); conditions: read-out: % Inhibition at 10 μM of the test compound
ABL = ABL (Homo sapiens (Human), UniProt P00519); conditions: read-out: % Inhibition at 10 μM of the test compound
PEK = PEK (Homo sapiens (Human), UniProt Q9NZJ5); conditions: read-out: % Inhibition at 10 μM of the test compound
IRR = IRR (Homo sapiens (Human), UniProt P14616); conditions: read-out: % Inhibition at 10 μM of the test compound
MAPKAPK 5 = MAPKAPK 5 (Homo sapiens (Human), UniProt Q8IW41); conditions: read-out: % Inhibition at 10 μM of the test compound
EGFR = EGFR (Homo sapiens (Human), UniProt P00533); conditions: read-out: % Inhibition at 10 μM of the test compound
NEK6 = NEK6 (Homo sapiens (Human), UniProt Q9HC98); conditions: read-out: % Inhibition at 10 μM of the test compound
IRAK1 = IRAK1 (Homo sapiens (Human), UniProt P51617); conditions: read-out: % Inhibition at 10 μM of the test compound
CDC7/ASK = CDC7/ASK (Homo sapiens (Human), UniProt O00311); conditions: read-out: % Inhibition at 10 μM of the test compound
PKCδ = PKCδ (Homo sapiens (Human), UniProt Q05655); conditions: read-out: % Inhibition at 10 μM of the test compound
RET(S891A) = RET(S891A) (Homo sapiens (Human), UniProt P07949, S891A); conditions: read-out: % Inhibition at 10 μM of the test compound
CDK7/CycH/MAT1 = CDK7/CycH/MAT1 (Homo sapiens (Human), UniProt P50613); conditions: read-out: % Inhibition at 10 μM of the test compound
MER = MER (Homo sapiens (Human), UniProt Q12866); conditions: read-out: % Inhibition at 10 μM of the test compound
PDK1 = PDK1 (Homo sapiens (Human), UniProt O15530); conditions: read-out: % Inhibition at 10 μM of the test compound
DYRK1A = DYRK1A (Homo sapiens (Human), UniProt Q13627); conditions: read-out: % Inhibition at 10 μM of the test compound
CK1γ1 = CK1γ1 (Homo sapiens (Human), UniProt Q9HCP0); conditions: read-out: % Inhibition at 10 μM of the test compound
ALK(L1152insT) = tested on: ALK(L1152insT)
Method: (§1) Briefly, a selection of compounds was screened against a panel of kinases at a single concentration of 10 μM. […] This was completed using one of two assays, depending on the kinase being examined: 1) IMAP Assay. A solution of 4× inhibitor, 4× substrate/ATP/metal solution and 2× kinase solution was prepared with assay buffer (20 mM HEPES, 0.01% Tween-20, 2 mM DTT, pH 7.4) and mixed, then incubated in 384-well black plates for 1 hour at room temperature. The IMAP binding reagent (IMAP Screening Express kit; Molecular Devices) was added to each well and incubated for 30 minutes. […] 2) Off-Chip Mobility Shift Assay (MSA). A solution of 4× inhibitor, 4× substrate/ATP/metal solution and 2× kinase solution was prepared with assay buffer (20 mM HEPES, 0.01% Triton X-100, 2 mM DTT, pH 7.5) and mixed, then incubated in 384-well plates for 1 or 5 hours depending on the kinase, at room temperature. Termination buffer (QuickScout Screening assist MSA; Carna Biosciences) was added to each well. The entire reaction mixture was then applied to a LabChip3000 system (Caliper Life Science), and the product and substrate peptide peaks were separated and quantified. […] The entire reaction mixture was then applied to a LabChip3000 system (Caliper Life Science), and the product and substrate peptide peaks were separated and quantified.

FES = FES (Homo sapiens (Human), UniProt P07332); conditions: read-out: % Inhibition at 10 μM of the test compound
PKCβ1 = PKCβ1 (Homo sapiens (Human), UniProt P05771); conditions: read-out: % Inhibition at 10 μM of the test compound
IGF1R = IGF1R (Homo sapiens (Human), UniProt P08069); conditions: read-out: % Inhibition at 10 μM of the test compound
KIT = KIT (Homo sapiens (Human), UniProt P10721); conditions: read-out: % Inhibition at 10 μM of the test compound
MAP2K2_Cascade = MAP2K2_Cascade (Homo sapiens (Human), UniProt P36507); conditions: read-out: % Inhibition at 10 μM of the test compound
COT_Cascade = tested on: COT_Cascade
Method: as §1

RSK1 = RSK1 (Homo sapiens (Human), UniProt Q15418); conditions: read-out: % Inhibition at 10 μM of the test compound
CLK2 = CLK2 (Homo sapiens (Human), UniProt P49760); conditions: read-out: % Inhibition at 10 μM of the test compound
PKN1 = PKN1 (Homo sapiens (Human), UniProt Q16512); conditions: read-out: % Inhibition at 10 μM of the test compound
PAK5 = PAK5 (Homo sapiens (Human), UniProt Q9P286); conditions: read-out: % Inhibition at 10 μM of the test compound
EPHA7 = EPHA7 (Homo sapiens (Human), UniProt Q15375); conditions: read-out: % Inhibition at 10 μM of the test compound
PKCβ2 = PKCβ2 (Homo sapiens (Human), UniProt P05771); conditions: read-out: % Inhibition at 10 μM of the test compound
DYRK3 = DYRK3 (Homo sapiens (Human), UniProt O43781); conditions: read-out: % Inhibition at 10 μM of the test compound
EGFR(d746-750/T790M) = EGFR(d746-750/T790M) (Homo sapiens (Human), UniProt P00533, DEL746-750/T790M); conditions: read-out: % Inhibition at 10 μM of the test compound
PAK1 = PAK1 (Homo sapiens (Human), UniProt Q13153); conditions: read-out: % Inhibition at 10 μM of the test compound

Sequence of CK1γ1 (Q9HCP0 whole entry): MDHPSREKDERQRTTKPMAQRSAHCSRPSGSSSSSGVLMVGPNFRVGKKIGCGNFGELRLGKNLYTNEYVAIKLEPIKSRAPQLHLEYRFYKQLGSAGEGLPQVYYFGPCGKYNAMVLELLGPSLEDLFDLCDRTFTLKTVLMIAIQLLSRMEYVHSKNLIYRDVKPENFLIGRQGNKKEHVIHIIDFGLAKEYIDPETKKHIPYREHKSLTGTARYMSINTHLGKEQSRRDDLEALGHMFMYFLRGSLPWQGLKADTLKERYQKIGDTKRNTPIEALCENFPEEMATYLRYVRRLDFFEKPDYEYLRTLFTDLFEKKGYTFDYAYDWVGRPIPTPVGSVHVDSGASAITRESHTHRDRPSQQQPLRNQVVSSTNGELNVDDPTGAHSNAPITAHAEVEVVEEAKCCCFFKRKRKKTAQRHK
Sequence of CDC7/ASK (O00311 whole entry, looked up): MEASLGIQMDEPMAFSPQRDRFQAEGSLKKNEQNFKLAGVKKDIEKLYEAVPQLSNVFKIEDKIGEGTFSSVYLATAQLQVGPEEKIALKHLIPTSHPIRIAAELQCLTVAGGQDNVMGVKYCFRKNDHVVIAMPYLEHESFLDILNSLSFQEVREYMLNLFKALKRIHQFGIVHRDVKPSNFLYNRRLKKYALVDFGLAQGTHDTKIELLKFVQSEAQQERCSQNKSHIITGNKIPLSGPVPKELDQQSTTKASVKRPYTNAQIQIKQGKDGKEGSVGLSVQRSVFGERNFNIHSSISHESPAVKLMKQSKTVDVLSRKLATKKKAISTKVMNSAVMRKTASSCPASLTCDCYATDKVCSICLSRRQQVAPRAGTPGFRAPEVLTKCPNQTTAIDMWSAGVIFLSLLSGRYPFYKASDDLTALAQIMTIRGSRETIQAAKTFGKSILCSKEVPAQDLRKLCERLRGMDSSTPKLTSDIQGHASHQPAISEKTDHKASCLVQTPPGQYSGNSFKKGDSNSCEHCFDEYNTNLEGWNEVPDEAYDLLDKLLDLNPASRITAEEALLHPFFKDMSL
Sequence of CDC7/ASK (Q9UBU7 whole entry partner, looked up): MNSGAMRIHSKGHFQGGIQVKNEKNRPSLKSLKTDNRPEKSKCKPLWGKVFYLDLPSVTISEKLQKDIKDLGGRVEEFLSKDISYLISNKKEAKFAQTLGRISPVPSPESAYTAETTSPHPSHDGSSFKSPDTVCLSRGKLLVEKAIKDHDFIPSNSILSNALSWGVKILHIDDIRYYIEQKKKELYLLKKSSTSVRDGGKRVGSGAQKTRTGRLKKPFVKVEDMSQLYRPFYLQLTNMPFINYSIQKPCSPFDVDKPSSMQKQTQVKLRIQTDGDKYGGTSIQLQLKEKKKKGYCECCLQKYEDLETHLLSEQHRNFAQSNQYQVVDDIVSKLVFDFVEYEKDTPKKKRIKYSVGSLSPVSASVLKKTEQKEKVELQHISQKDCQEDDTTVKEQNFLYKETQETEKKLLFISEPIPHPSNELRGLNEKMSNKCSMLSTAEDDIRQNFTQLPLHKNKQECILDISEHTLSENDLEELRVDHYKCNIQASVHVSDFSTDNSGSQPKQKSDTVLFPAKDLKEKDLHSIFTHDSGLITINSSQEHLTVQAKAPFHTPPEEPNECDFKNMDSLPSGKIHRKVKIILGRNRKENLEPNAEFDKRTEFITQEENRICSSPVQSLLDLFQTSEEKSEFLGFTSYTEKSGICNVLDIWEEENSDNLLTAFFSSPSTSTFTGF
Sequence of IRR (P14616 27-1297): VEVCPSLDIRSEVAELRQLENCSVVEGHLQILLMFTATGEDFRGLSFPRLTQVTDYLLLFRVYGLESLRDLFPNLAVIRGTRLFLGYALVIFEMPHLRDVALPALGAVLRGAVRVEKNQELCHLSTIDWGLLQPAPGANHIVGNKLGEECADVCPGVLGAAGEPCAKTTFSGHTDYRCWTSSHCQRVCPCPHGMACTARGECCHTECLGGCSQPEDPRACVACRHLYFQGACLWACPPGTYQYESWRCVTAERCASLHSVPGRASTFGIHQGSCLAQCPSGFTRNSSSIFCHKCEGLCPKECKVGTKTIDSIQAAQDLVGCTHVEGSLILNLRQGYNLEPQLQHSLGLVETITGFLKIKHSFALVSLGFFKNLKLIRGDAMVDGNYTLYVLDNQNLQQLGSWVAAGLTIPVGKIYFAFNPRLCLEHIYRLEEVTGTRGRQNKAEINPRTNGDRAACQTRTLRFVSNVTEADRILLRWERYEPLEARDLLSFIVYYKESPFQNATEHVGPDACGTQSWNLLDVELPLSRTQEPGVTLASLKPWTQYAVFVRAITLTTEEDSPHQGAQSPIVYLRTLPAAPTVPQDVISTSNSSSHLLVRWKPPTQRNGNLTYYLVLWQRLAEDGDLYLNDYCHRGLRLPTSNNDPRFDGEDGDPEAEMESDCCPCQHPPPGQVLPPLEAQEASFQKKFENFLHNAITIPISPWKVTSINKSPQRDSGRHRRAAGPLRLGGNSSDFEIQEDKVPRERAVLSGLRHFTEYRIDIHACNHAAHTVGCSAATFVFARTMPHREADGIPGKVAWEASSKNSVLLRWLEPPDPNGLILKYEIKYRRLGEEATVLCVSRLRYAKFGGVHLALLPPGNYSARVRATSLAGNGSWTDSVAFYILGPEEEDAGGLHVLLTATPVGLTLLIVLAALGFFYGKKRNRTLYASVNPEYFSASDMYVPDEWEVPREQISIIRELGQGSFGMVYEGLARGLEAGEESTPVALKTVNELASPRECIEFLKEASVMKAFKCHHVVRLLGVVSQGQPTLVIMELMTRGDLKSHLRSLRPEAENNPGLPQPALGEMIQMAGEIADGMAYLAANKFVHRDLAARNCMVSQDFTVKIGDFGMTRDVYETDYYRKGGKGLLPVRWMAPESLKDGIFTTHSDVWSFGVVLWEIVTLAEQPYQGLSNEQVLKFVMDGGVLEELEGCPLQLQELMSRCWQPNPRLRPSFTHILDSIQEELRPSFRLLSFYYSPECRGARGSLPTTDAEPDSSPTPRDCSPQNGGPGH
Sequence of NEK6 (Q9HC98 whole entry): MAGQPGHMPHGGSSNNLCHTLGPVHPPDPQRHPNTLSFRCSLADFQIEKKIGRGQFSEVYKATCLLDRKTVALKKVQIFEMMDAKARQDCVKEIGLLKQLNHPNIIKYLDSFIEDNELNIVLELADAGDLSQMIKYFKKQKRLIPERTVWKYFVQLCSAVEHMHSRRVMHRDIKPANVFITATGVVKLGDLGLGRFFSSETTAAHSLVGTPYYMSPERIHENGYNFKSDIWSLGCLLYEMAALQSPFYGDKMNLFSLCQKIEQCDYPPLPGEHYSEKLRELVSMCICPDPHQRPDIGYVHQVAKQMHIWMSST
Sequence of CLK2 (P49760 whole entry, species assumed): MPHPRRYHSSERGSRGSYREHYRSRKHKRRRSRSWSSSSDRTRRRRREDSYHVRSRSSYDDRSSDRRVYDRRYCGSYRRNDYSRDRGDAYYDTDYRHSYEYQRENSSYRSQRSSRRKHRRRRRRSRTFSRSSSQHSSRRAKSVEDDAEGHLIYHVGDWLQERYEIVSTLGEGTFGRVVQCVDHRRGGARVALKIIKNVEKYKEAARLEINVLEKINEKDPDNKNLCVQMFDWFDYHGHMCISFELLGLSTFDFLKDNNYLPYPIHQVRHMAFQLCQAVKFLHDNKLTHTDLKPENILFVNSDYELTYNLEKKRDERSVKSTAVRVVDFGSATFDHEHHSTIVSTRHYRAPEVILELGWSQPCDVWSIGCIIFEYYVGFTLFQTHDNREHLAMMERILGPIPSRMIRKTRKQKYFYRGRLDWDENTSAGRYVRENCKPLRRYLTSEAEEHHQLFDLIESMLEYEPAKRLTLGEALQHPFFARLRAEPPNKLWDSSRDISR
Sequence of EGFR(d746-750) (P00533 other isoform, or with tags, fused parts or gaps del 1-668/del 746-750 limits assumed): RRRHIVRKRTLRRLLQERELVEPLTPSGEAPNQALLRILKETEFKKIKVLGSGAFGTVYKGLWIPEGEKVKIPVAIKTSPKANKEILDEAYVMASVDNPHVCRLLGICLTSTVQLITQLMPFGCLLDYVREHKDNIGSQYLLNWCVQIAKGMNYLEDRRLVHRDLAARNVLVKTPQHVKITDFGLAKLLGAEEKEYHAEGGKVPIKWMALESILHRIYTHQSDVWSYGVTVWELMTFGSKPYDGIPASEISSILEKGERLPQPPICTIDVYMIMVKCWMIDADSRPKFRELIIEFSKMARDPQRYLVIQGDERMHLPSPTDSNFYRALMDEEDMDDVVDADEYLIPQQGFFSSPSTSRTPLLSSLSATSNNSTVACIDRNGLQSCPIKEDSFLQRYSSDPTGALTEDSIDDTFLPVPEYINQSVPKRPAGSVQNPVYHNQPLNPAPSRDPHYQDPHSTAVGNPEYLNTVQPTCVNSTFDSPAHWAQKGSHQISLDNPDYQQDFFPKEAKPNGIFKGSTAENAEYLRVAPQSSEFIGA
Sequence of RSK1 (Q15418 whole entry, looked up): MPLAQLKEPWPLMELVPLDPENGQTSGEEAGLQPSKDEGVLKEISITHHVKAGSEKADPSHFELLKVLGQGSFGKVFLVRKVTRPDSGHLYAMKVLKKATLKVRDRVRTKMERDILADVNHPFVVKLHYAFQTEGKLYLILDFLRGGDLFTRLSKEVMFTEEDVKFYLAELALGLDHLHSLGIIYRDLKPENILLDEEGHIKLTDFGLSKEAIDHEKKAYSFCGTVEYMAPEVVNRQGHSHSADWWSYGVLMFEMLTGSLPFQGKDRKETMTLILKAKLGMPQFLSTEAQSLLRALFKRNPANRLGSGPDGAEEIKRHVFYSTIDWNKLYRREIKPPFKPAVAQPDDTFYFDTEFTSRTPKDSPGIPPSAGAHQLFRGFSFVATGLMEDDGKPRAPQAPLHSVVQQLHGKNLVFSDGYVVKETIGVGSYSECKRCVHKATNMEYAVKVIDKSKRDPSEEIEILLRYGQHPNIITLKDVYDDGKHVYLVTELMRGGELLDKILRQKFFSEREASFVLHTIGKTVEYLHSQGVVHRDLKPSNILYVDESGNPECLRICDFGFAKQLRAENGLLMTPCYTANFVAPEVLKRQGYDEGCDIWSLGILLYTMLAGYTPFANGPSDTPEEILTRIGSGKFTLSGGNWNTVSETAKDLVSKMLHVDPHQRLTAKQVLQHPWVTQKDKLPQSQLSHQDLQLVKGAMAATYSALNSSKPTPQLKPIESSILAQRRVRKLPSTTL

CCC1(c2ccccc2)C2=C(CC(C)(C)CC2=O)Nc2ncsc21 (centres unmarked) [Compound 1, 9-Ethyl-6,6-dimethyl-9-phenyl-5,6,7,9-tetrahydrothiazolo[4,5-b]quinolin-8(4H)-one]
inhibition at 10 µM (NEK9): 0.3% | inhibition at 10 µM (PKCη): 9.3% | inhibition at 10 µM (BMX): -10.6% | inhibition at 10 µM (SLK): -0.6% | inhibition at 10 µM (EGFR(d746-750)): -6.1% | inhibition at 10 µM (ITK): 0% | inhibition at 10 µM (Erk5): -0.6% | inhibition at 10 µM (PRKX): 4.2% | inhibition at 10 µM (MAP3K5_Cascade): 5.4% | inhibition at 10 µM (EPHA3): 22.5% | inhibition at 10 µM (ABL): -2.7% | inhibition at 10 µM (PEK): -6% | inhibition at 10 µM (IRR): 6.6% | inhibition at 10 µM (MAPKAPK 5): -8.5% | inhibition at 10 µM (EGFR): 21.2% | inhibition at 10 µM (NEK6): 20.9% | inhibition at 10 µM (IRAK1): -8.9% | inhibition at 10 µM (CDC7/ASK): -9.1% | inhibition at 10 µM (PKCδ): 2.4% | inhibition at 10 µM (RET(S891A)): 1.4% | inhibition at 10 µM (CDK7/CycH/MAT1): 22.6% | inhibition at 10 µM (MER): 3.8% | inhibition at 10 µM (PDK1): -4% | inhibition at 10 µM (DYRK1A): -5.8% | inhibition at 10 µM (CK1γ1): 1.2% | % Inhibition at 10 μM of the test compound (ALK(L1152insT)): −2.3% | inhibition at 10 µM (FES): -6.2% | inhibition at 10 µM (PKCβ1): -7.4% | inhibition at 10 µM (IGF1R): 2% | inhibition at 10 µM (KIT): 7.1% | inhibition at 10 µM (MAP2K2_Cascade): 6.4% | % Inhibition at 10 μM of the test compound (COT_Cascade): −1.5% | inhibition at 10 µM (RSK1): -2% | inhibition at 10 µM (CLK2): 0.9% | inhibition at 10 µM (PKN1): 8.9% | inhibition at 10 µM (PAK5): 2.9% | inhibition at 10 µM (EPHA7): 33.9% | inhibition at 10 µM (PKCβ2): -10.7% | inhibition at 10 µM (DYRK3): 0.3% | inhibition at 10 µM (EGFR(d746-750/T790M)): -5.6% | inhibition at 10 µM (PAK1): 0.3%
